Measurements taken from paper PMC6052416, “Selective inhibition of carbonic anhydrase-IX by sulphonamide derivatives induces pH and reactive oxygen species-mediated apoptosis in cervical cancer HeLa cells” (Journal of Enzyme Inhibition and Medicinal Chemistry, 2018).

Experiments:
[1] = test system: HeLa cells; assay: Western blot of apoptosis proteins and CA IX; type: cell-based, human; conditions: 24 h
Protocol: The cells were seeded on 6 cm^2 cell culture dishes and treated with sulphonamide compounds, at doses of 10–25–50 µM, for 24 h. The cells were then washed with cold PBS, which was followed by lysis with RIPA lysis buffer (10 mM Tris-HCl pH = 8, 1 mM EDTA, 1 mM EGTA, 140 mM NaCl, 1% Triton X-100, 0.1 SDS, 0.1% sodium deoxycholate), 1X phosphates and protease inhibitor (Santa Cruz Biotechnology, Dallas, USA). The acquired supernatants from the lysates which were centrifuged at 12,000 g, + 4 °C, for 10 min, were transferred to new tubes. Protein concentration was detected using the protein assay kit BCA (Thermo Fisher Scientific, Waltham, MA). After a 30-min period of protein (50 µg) standing in 10% SDS–PAGE gel at 50 V and at 80 V for 3 h, those were blotted to PVDF membrane at 70 V for 5 min (Bio-Rad Turbo Transfer System). After embedding in 1X TBST (12.1 g Tris, pH 7.5, 70 g NaCl, 0.1% Tween-20) containing 5% dry milk or 5% BSA, the primer monoclonal antibodies shown in Table 2 were applied to the membrane and left overnight, which was followed by washing with 1 X TBS-T and an incubation period with secondary antibodies of HRP rabbit or mouse (1/10.000) for 60 min. The membrane was again washed with 1 X TBS-T. For band imaging, ECL substrate (EMD Millipore Corp., Billerica, MA) was added and observations were made via the imaging system (LI-COR Odyssey Fc).

[2] = biological target: hCA IX; set-up: method as in PMID 25913118, PMID 26803577; conditions: cited from earlier work
[3] = test system: HeLa cells; assay: DNA damage γ-H2AX immunofluorescence; type: cell-based, human; conditions: 24 h, concentration dependent
Protocol: HeLa cells (1 × 10^4/mL) were seeded in 12-well cell culture dishes and after 24 h, they were administered with the sulphonamide derivative compounds at doses of 10–25–50 µM and incubated for 24 h. The cells were washed with PBS and fixed with 100% methanol at −20 °C overnight, which was followed by PBS washing three times for 10 min for each washing. The cells were treated with 0.2% Triton X-100 in a shaker, at room temperature for 5 min. They were washed with PBS, and 1% BSA-containing PBS was then added, and incubation with primary mouse monoclonal anti-γ-H2AX antibody (Cell Signaling Technology, Danvers, MA) was applied at 37 °C for 1 h. The cells were washed with PBS for 5 min three times. Secondary goat anti-mouse Alexa-488-conjugated IgG (Invitrogen, Thermo Fisher Scientific, USA) was administered and the cells were incubated at 37 °C for 20 min, followed by PBS washing for 4–5 min three times. 1 mL 70% EtOH was added and, at +4 °C, released to incubation for 5 min. 1 mL 100% EtOH was added in a shaker, which was then incubated at room temperature for 1–2 min. The nucleus was stained with DAPI and the images were recorded using an Olympus Inverted Fluorescence Microscope (Olympus CKX53, DP73).

In the case of `NS(=O)(=O)c1ccc(CCN=Cc2cc(Br)ccc2O)cc1` [Compound 1], the “CA IX protein expression” value ([1]; HeLa, 50μM) is reported as “increase”, the “cleaved caspase-8 level” value ([1]; HeLa, 50μM) is reported as “increase” and the “cleaved caspase-9 level” value ([1]; HeLa, 10, 25, 50 µM) is reported as “increase”. For the same compound, the “cleaved caspase-3 level” value ([1]; HeLa) was “significantly increased”, the cleaved-PARP level ([1]; HeLa) was “increase” and the Ki [2] was 187 nM. For the same compound, the “DNA damage (γ-H2AX foci)” value [3] was “increasing γ-H2AX focus points”.
